The values that follow come from patent publication US20100183600A1, “RAF Inhibitors and Their Uses” (ARQULE, INC., priority 2008, published 2010).

In one assay the target is T1, mutant B-RAF (Homo sapiens, UniProt P15056, V600E).
T1 construct: purchased Upstate (Charlottesville, Va.)
As to the kind of experiment: Measurement of RAF activity (MEK-1 phosphorylation). The format is biochemical. The note with it: for increase in IC50 relative to compound 14: mutant B-RAF. As to the method:
Materials: The RAF kinases and the anti-phospho MEK1/2 antibody were from Upstate (Charlottesville, Va.). The RAF substrate used was full length N-terminal GST-MEK-1, which was expressed in E. coli and purified in-house by HPLC. All proteins were aliquoted and stored at −80° C. Superblock™ in phosphate buffered saline (PBS) blocking reagent was form Pierce (cat. #37515). ATP was from Roche (cat. # 19035722). Alkaline Phosphatase-tagged goat anti-rabbit antibody was from Pierce (cat. # 31340).
Methods: All RAF biochemical assays were performed using an assay buffer containing 20 mM MOPS, 5 mM EGTA, 37.5 mM MgCl2, 1 mM DTT and 50 μM ATP. There was 6.25 ng/well mutant B-RAF and 7.5 ng/well MEK-1 in the final assay conditions. Compounds were serially diluted in assay buffer containing 1% DMSO and 20 μl of test compound at a concentration 3-fold more than the final concentration, and were added to a polypropylene V-well reaction plate. Vehicle control wells received buffer only with DMSO at equivalent concentrations to the test wells. […] These reaction plates were incubated at room temperature for 30 minutes. Capture of MEK-1 was initiated by transferring 50 μl of the reaction mixture to a Nunc Maxisorp™ microplate that is designed for non-specific protein capture. After 30 minute capture of MEK-1 at room temperature, this plate was washed with TBST (6×200 μL/well) to fully terminate the reaction. The plate was then blocked for 1 hour by the addition of 100 μl/well of Superblock™ in phosphate buffered saline (PBS) blocking reagent. Plate was again washed with TBST (6 times with 200 μl/well), followed by the addition of 70 μl/well of Upstate anti-phospho MEK ½ diluted 1:1000 in Pierce Superblock (PBS). After a 60 minute incubation, this plate was washed with TBST (6 times with 200 μl/well), and 70 μl of the secondary antibody (Pierce Alkaline Phosphatase tagged goat anti-rabbit) prepared at 1:4000 in Superblock, were added. After a 45 minute incubation at room temperature, the wells of the microplate were washed with TBST (6 times with 200 μl/well), and thereafter 100 μl/well of Attophos™ fluorescent alkaline phosphatase substrate was added according to the manufacturer's instructions (JBL Scientific). Fluorescence was read on a Perkin Elmer Envision multilabel reader, using the following filters: Excitation Filter: CFP430 nM, Emission Filter: Emission Filter 579 nM.

Another assay concerns p-Erk (A375). As to the kind of experiment: Cell-based phosphorylation assay with electroblotting readout. Also noted: species or system human. The note with it: A375 cells; for pEC50: Homo sapiens, A-375, 1 hr. An excerpt: Compounds of the present invention have been screened for their ability to inhibit all isoforms, both wild-type and mutant of RAF kinases (A-RAF, B-RAF and C-RAF) in general, and the mutant B-RAF (V600E) in particular in human cancer cells. A375 is a human melanoma cell line that harbors the most common B-RAF mutation-V600E found in human cancers. The ability of compounds to inhibit RAF kinases in this assay is correlated with the reduction of MEK and ERK phosphorylation, and is therefore a direct indicator of potential in vivo therapeutic activity.
Materials: A375 cells from ATCC were maintained at 37° C., 5% CO2 in DMEM media supplemented with 10% fetal bovine serum, penicillin/streptomycin and fungizone. (Invitrogen)
Methods: Test compounds were dissolved and diluted 1:1000 in DMSO. A375 cells were seeded in six-well tissue culture plates at 5-8×10^5 per well and cultured at 37° C. for 24 h. Cells were incubated with compounds for one hour before being lysed in EPage™ loading buffer (Invitrogen). Lysates were electrophoresed on 8% EPage™ gels and transferred to polyvinylidene difluoride membranes. After incubations with primary and secondary antibodies, the immunostained proteins were detected and quantitated by an Odyssey infrared imager (LI-COR). Analysis was performed by non-linear regression to generate a dose response curve. The calculated IC50 value was the concentration of the test compound that causes a 50% decrease in phospho-MEK and phospho-ERK levels. The primary antibodies used were anti-MEK (Stressgen), anti-ERK (BD Biosciences), anti-phospho-ERK and anti-phospho-MEK (Cell Signaling). The secondary antibodies used were IRDYE800 anti-rabbit, IRDYE 800 anti-mouse (Rockland), AlexaFluor680 anti-mouse and AlexaFluoro680 anti-rabbit (Invitrogen).
A375 cells were treated with 0, 12, 37, 111, 333 and 1000 nM of indicated compounds for 1 hr. The levels of Phospho-ERK and total-ERK were accessed by immunoblotting.

Where [1] appears, read: 50 μM ATP, MEK-1 substrate, read-out: Mut-B-Raf IC50.

pEC50, pIC50: −log10 of the molar value. Like-named read-outs stand apart in the source and are kept apart here.

The term pIC50 denotes the negative decadic logarithm of the IC50, by convention in mol/L. The pEC50 is −log10 of the EC50, conventionally taken in molar units. The low end stands for a large EC50, the high end for a small EC50.

T1 sequence (P15056 whole entry V600E): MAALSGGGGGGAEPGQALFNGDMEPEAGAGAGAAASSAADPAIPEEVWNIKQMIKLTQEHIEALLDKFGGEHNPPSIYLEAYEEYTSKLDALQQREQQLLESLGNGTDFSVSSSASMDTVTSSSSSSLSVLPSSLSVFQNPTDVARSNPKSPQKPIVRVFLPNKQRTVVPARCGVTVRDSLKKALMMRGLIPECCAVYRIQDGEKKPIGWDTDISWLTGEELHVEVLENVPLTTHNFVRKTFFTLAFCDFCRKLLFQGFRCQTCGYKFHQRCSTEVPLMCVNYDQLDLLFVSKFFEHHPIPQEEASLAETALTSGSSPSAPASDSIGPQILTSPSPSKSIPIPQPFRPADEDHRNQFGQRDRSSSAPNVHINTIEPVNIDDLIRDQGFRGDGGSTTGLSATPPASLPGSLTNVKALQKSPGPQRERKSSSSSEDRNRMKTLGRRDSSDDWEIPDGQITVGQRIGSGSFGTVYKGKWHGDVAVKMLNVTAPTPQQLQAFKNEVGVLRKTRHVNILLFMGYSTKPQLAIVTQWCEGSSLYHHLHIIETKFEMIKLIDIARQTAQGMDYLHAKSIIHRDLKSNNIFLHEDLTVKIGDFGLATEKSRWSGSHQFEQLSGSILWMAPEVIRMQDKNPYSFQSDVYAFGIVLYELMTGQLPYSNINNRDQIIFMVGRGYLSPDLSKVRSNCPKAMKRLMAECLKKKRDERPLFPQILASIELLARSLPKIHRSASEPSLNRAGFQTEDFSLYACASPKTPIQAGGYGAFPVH

With `Cn1ccc(S(=O)(=O)N2CCC(Nc3nccc(-c4c(-c5cccc(OCOP(=O)(O)O)c5)nc5occn45)n3)CC2)n1` [Compound 21, (3-(5-(2-(1-(1-methyl-1H-pyrazol-3-ylsulfonyl)piperidin-4-ylamino)pyrimidin-4-yl)imidazo[2,1-b]oxazol-6-yl)phenoxy)methyl dihydrogen phosphate], the pIC50 on mutant B-RAF (setting [1]) was 5.94. In the assay on p-Erk (A375), this compound showed a pEC50 of 6.85.

Regarding `O=P(O)(O)OCOc1cccc(-c2nc3sccn3c2-c2ccnc(N[C@@H]3CCCN(S(=O)(=O)c4ccc(Cl)cc4)C3)n2)c1` [Compound 3, (R)-(3-(5-(2-(1-(4-chlorophenylsulfonyl)piperidin-3-ylamino)pyrimidin-4-yl)imidazo[2,1-b]thiazol-6-yl)phenoxy)methyl dihydrogen phosphate], the pIC50 on mutant B-RAF (setting [1]) is 6.43. The same compound showed a pEC50 with p-Erk (A375) of 7.15.

As to `O=P(O)(O)Oc1cccc(-c2nc3occn3c2-c2ccnc(NC3CCN(S(=O)(=O)C4CC4)CC3)n2)c1` [Compound 12, 3-(5-(2-(1-(cyclopropylsulfonyl)piperidin-4-ylamino)pyrimidin-4-yl)imidazo[2,1-b]oxazol-6-yl)phenyl dihydrogen phosphate], the pIC50 against mutant B-RAF was less than 5.48. The same compound gave a pEC50 in the assay with p-Erk (A375) of 6.75.

For `Cn1ccc(S(=O)(=O)N2CCC[C@@H](Nc3nccc(-c4c(-c5ccc(F)c(OP(=O)(O)O)c5)nc5occn45)n3)C2)n1` [Compound 23, (R)-2-fluoro-5-(5-(2-(1-(1-methyl-1H-pyrazol-3-ylsulfonyl)piperidin-3-ylamino)pyrimidin-4-yl)imidazo[2,1-b]oxazol-6-yl)phenyl dihydrogen phosphate], the pIC50 against mutant B-RAF was 5.98. The pEC50 in the assay on p-Erk (A375) is 8.05.

Regarding `O=S(=O)(c1ccc(Cl)cc1)N1CCC[C@@H](Nc2nccc(-c3c(-c4cccc(O)c4)nc4sccn34)n2)C1` [Compound 1, (R)-3-(5-(2-(1-(4-chlorophenylsulfonyl)piperidin-3-ylamino)pyrimidin-4-yl)imidazo[2,1-b]thiazol-6-yl)phenol], the pIC50 on mutant B-RAF (setting [1]) was 8.22. The compound also showed a pEC50 in the assay on p-Erk (A375) of 7.96.

For `O=P(O)(O)Oc1cccc(-c2nc3occn3c2-c2ccnc(N[C@@H]3CCCN(S(=O)(=O)c4ccc(Cl)cc4)C3)n2)c1` [Compound 5, (R)-3-(5-(2-(1-(4-chlorophenylsulfonyl)piperidin-3-ylamino)pyrimidin-4-yl)imidazo[2,1-b]oxazol-6-yl)phenyl dihydrogen phosphate], the pIC50 against mutant B-RAF is 5.72. In the assay with p-Erk (A375), this compound had a pEC50 of 6.90.

As to `O=P(O)(O)OCOc1cccc(-c2nc3occn3c2-c2ccnc(N[C@@H]3CCCN(S(=O)(=O)c4ccc(Cl)cc4)C3)n2)c1` [Compound 6, (R)-(3-(5-(2-(1-(4-chlorophenylsulfonyl)piperidin-3-ylamino)pyrimidin-4-yl)imidazo[2,1-b]oxazol-6-yl)phenoxy)methyl dihydrogen phosphate], on mutant B-RAF (setting [1]), the pIC50 was 5.85. Moreover, the pEC50 in the assay with p-Erk (A375) is 7.92.

In the case of `O=P(O)(O)OCOc1cccc(-c2nc3occn3c2-c2ccnc(NC3CCN(S(=O)(=O)C4CC4)CC3)n2)c1` [Compound 13, (3-(5-(2-(1-(cyclopropylsulfonyl)piperidin-4-ylamino)pyrimidin-4-yl)imidazo[2,1-b]oxazol-6-yl)phenoxy)methyl dihydrogen phosphate], the negative-log IC50 (pIC50) on mutant B-RAF (setting [1]) was less than 5.48. Also, the pEC50 in the assay on p-Erk (A375) is 6.79.

Compound `O=P(O)(O)Oc1cccc(-c2nc3occn3c2-c2ccnc(NC3CCN(S(=O)(=O)c4ccc(F)cc4)CC3)n2)c1` [Compound 10, 3-(5-(2-(1-(4-fluorophenylsulfonyl)piperidin-4-ylamino)pyrimidin-4-yl)imidazo[2,1-b]oxazol-6-yl)phenyl dihydrogen phosphate] showed a pIC50 on mutant B-RAF of 5.93. Also, in the assay on p-Erk (A375), the pEC50 was 7.06.

For the compound `Cn1ccc(S(=O)(=O)N2CCC[C@@H](Nc3nccc(-c4c(-c5cccc(OP(=O)(O)O)c5)nc5sccn45)n3)C2)n1` [Compound 15, (R)-3-(5-(2-(1-(1-methyl-1H-pyrazol-3-ylsulfonyl)piperidin-3-ylamino)pyrimidin-4-yl)imidazo[2,1-b]thiazol-6-yl)phenyl dihydrogen phosphate], at mutant B-RAF, the pIC50 was 5.62 and the “increase in IC50 relative to compound 14” value was roughly 400 fold. In the assay with p-Erk (A375), the “deviation in EC50 (cell-based ERK inhibition) relative to compound 14” value is recorded as “about 2 fold” and the pEC50 was 8.10.

Turning to `Cn1ccc(S(=O)(=O)N2CCC[C@@H](Nc3nccc(-c4c(-c5cccc(OCOP(=O)(O)O)c5)nc5sccn45)n3)C2)n1` [Compound 16, (R)-(3-(5-(2-(1-(1-methyl-1H-pyrazol-3-ylsulfonyl)piperidin-3-ylmino)pyrimidin-4-yl)imidazo[2,1-b]thiazol-6-yl)phenoxy)methyl dihydrogen phosphate], on mutant B-RAF (setting [1]), the pIC50 is 5.94. The “increase in IC50 relative to compound 14” value at mutant B-RAF is listed as roughly 193 fold. For the same compound, in the assay with p-Erk (A375), the “deviation in EC50 (cell-based ERK inhibition) relative to compound 14” value is roughly 4 fold and the pEC50 was 8.40.

Turning to `O=P(O)(O)Oc1cccc(-c2nc3sccn3c2-c2ccnc(N[C@@H]3CCCN(S(=O)(=O)c4ccc(Cl)cc4)C3)n2)c1` [Compound 2, (R)-3-(5-(2-(1-(4-chlorophenylsulfonyl)piperidin-3-ylamino)pyrimidin-4-yl)imidazo[2,1-b]thiazol-6-yl)phenyl dihydrogen phosphate], the pIC50 on mutant B-RAF was 5.72. The pEC50 in the assay on p-Erk (A375) was 6.59.

`Cn1ccc(S(=O)(=O)N2CCC[C@@H](Nc3nccc(-c4c(-c5cccc(OP(=O)(O)O)c5)nc5occn45)n3)C2)n1` [Compound 18, (R)-3-(5-(2-(1-(1-methyl-1H-pyrazol-3-ylsulfonyl)piperidin-3-ylamino)pyrimidin-4-yl)imidazo[2,1-b]oxazol-6-yl)phenyl dihydrogen phosphate]: at mutant B-RAF, the pIC50 was less than 5.48. In the assay on p-Erk (A375), this compound gave a pEC50 of 7.06.

Take `Cn1ccc(S(=O)(=O)N2CCC[C@@H](Nc3nccc(-c4c(-c5ccc(F)c(OCOP(=O)(O)O)c5)nc5occn45)n3)C2)n1` [Compound 24, (R)-(2-fluoro-5-(5-(2-(1-(1-methyl-1H-pyrazol-3-ylsulfonyl)piperidin-3-ylamino)pyrimidin-4-yl)imidazo[2,1-b]oxazol-6-yl)phenoxy)methyl dihydrogen phosphate]: at mutant B-RAF (setting [1]), the negative logarithm of the IC50 (pIC50) was 7.55. The same compound showed a pEC50 with p-Erk (A375) of 7.28.

With `O=P(O)(O)OCOc1cccc(-c2nc3sccn3c2-c2ccnc(NC3CCN(S(=O)(=O)c4ccc(Cl)cc4)CC3)n2)c1` [Compound 8, (3-(5-(2-(1-(4-chlorophenylsulfonyl)piperidin-4-ylamino)pyrimidin-4-yl)imidazo[2,1-b]thiazol-6-yl)phenoxy)methyl dihydrogen phosphate], the negative-log IC50 (pIC50) on mutant B-RAF (setting [1]) is 6.39. In addition, the negative-log EC50 (pEC50) in the assay with p-Erk (A375) was 6.03.
